# Where two headings read alike, the source gives them in different places.
# Assays:
# Format in all cases: cell-based
# [1] = system: IgM production by human lymphocytes; assay: Inhibition of IgM production by human lymphocytes in vitro (SAC activation, ELISA); settings: 8 days, vehicle control 2.49 ± 0.17
# Excerpt: (§1) General Test Description Humoral immunity comprises one of the two major arms of the immune system and generally is beneficial. However, a number of disease states are characterized by a hyperactive immune system responding to self tissue antigens. […] In these diseases it would be important to suppress the humoral immune system.
# (§2) In the following studies we used established methods to examine the effect of Vitamin D derivatives on the in vitro production of immunoglobulin (Ig) by human peripheral blood leukocytes (PBL) following polyclonal activation. Immunoglobulin was induced from PBL by co-culturing the PBL with the polyclonal B cell activator Staphylococcus aureus strain Cowan I (SAC) for a period of 8 days. The quantity of Ig produced in the culture supernatants was determined by using an enzyme linked immunosorbent assay (ELISA). The effect of Vitamin D derivatives was determined by comparing the amount of antibody produced in cultures containing Vitamin D derivatives to those cultures containing an appropriate concentration of vehicle (ethanol).
# (§3) Solutions of vitamin D derivatives. Stock solutions of vitamin D derivatives were prepared as described previously for the murine CTL experiments.
# (§4) INDUCTION OF HUMAN IG SECRETION Human peripheral blood mononuclear leukocytes were prepared from one day old buffy coat preparations obtained from the American Red Cross (Lansing, MI). […] Twenty five ml of this preparation were overlayed onto 25 ml of Ficoll-Paque contained in a 50 ml polypropylene centrifuge tube. After centrifugation at 400×g at 15° C. for 40 min, the cells at the interface of the medium and Ficoll were removed and washed 3 times in 50 ml RPMI medium and centrifuged at 300×g for 10 minutes. After the final centrifugation,the cell pellet was suspended in RPMI medium containing 20% fetal bovine serum (FBS) and 80 μg/ml gentamicin. The number of viable cells was determined by trypan blue exclusion and were then suspended to 2.5×10^6 viable cells per ml in RPMI containing 20% FBS and gentamicin. Human PBL were induced to secrete Ig as follows. One hundred microliters of the PBL suspension and an additional 100 μl of a 1:20,000 (v/v) preparation of SAC suspended in RPMI containing 1% FBS were added to each well of a 96-well microtiter plate. Selected wells were also set up without the addition of SAC to serve as negative controls (spontaneous Ig secretion). Each well then received 20 μl of either the appropriate dilution of Vitamin D derivative in RPMI with 1% ethanol or RPMI with 1% ethanol (vehicle control). The vitamin D derivatives were tested at final concentrations of 10^-5, 10^-6, 10^-7, 10^-8, 10^-9, and 10^-10 M and in all cases the vehicle (ethanol) concentration was 0.1%. All treatments were performed in triplicate. […] The samples were then either assayed immediately or stored at -20° C. until assayed by the ELISA technique described below.
# (§5) QUANTITATION OF SECRETED IG (ELISA ASSAY) ELISA plates were prepared for quantitating human IgG and IgM levels in culture supernatants as follows. Affinity purified sheep anti-human IgG and goat anti-human IgM (Cappel, Cochranville, PA) were diluted 1:250 and 1:400 respectively, in carbonate coating buffer (0.05M sodium bicarbonate, 0.05M sodium carbonate, 0.15M sodium chloride). One hundred and fifty microliters of the antibody preparation were added to each well of a 96 well ELISA plate (EIA, Costar). The plates were sealed and incubated overnight at 4° C. and on the following day were washed 3 times with distilled water. Each well then received 350 μl of Dulbecco's PBS containing 1 mg/ml bovine serum albumin (BSA) and 0.5 mg/ml sodium azide. The plates were allowed to incubate for 1 hour at 37° C. and then washed 3 times with Dulbecco's PBS containing 0.5% stock Tween 20 (PBS-Tween) followed by 2 washes with distilled water. The plates were air dried and stored desiccated under a vacuum at 4° C. until use.
# [2] = system: IgG production by human lymphocytes; assay: Inhibition of IgG production by human lymphocytes in vitro (SAC activation, ELISA); settings: 8 days, vehicle control 0.78 ± 0.09
# Excerpt: as §1, §2, §3, §4, §5
# [3] = system: human cytotoxic T-lymphocyte responses; assay: Inhibition of human CTL responses (mixed leukocyte-tumor cultures, HT-144 melanoma, ^51 Cr release); settings: donor I, 0.01% ethanol, effector to target 6:1; for inhibition at 1 µM / inhibition at 0.1 µM / inhibition at 10 µM: Homo sapiens, T-lymphocyte, read-out: Inhibition of CTL activity (%)
# Experimental: Human cells for the tests described below were taken from four donors designated I, II, III, and IV in the tables below.
# Stock solutions of Vitamin D derivatives were prepared as they were prepared above in the murine tests.
# Human cytotoxic T-lymphocytes were generated in mixed leukocyte-tumor cultures by known methods. Specifically, blood from normal volunteer donors was drawn into heparinized syringes, diluted 1:1 with calcium-magnesium free Hanks' balanced salt solution (Ca-Mg free HBSS), and layered over lymphocyte separation medium (Litton Bionetics, Kensington, MD). After centrifugation at 500xg for 20-30 min at room temperature, peripheral blood mononuclear cells were harvested from the interface. The peripheral blood mononuclear leukocytes were centrifuged and resuspended in Ca-Mg free HBSS and were subsequently separated from platelets by centrifugation at 500xg through a solution of 20% sucrose and 1% human AB serum in Ca-Mg free HBSS. The cells were washed once and finally resuspended in tissue culture medium. […] Cells to be used as stimulator cells in mixed leukocyte-tumor cultures were irradiated with 10,000 rads of gamma irradiation to preclude proliferation in culture. Mixed leukocyte-tumor cell cultures were established in 16 mm tissue culture wells at a final volume of 1.5 ml per well containing 2×10^6 peripheral blood mononuclear leukocytes and 5×10^4 irradiation-inactivated stimulator cells. In order to prevent the generation of nonspecific cytotoxic cells in these cultures, hydrocortisone sodium succinate was added to each culture at a final concentration of 1×10^-5 M. Mixed leukocyte-tumor cultures were incubated for 6 days in a humidified atmosphere of 5% CO2 in air.
# Labelled target cells were washed free of unbound isotope by 3 serial washes in tissue culture medium and were finally resuspended at a concentration of 5×10^4 cells per ml.
# Assays of human cytotoxic T-lymphocytes were done by known methods. Specifically, one-tenth ml aliquots of ^51 Cr-labelled target cell suspension were added to "half area" microtest plates and were incubated at 37° C. for 18 hours in a humidified atmosphere of 5% CO2 in air to permit the cells to adhere and spread on the floor of each well. Culture medium was then aspirated from each well and was replaced with 0.1 ml of tissue culture medium containing cells harvested from mixed leukocyte-tumor cultures which had been processed as described for murine mixed leukocute cultures, above. Control wells for measurement of spontaneous ^51 Cr release received medium without effector cells and wells for measurement of maximal releasable ^51 Cr received 0.1 ml of 2% sodium dodecyl sulfate in distilled water. After overnight incubation at 37° in a humidified atmosphere of 5% CO2 in air, 0.05 ml of cell-free supernatant was withdrawn from each well and the amount of released ^51 Cr was quantitated using a gamma spectrometer. The percentage of specific ^51 Cr release (CTL activity) and the percent inhibition of CTL activity were calculated with the same formulas used above for the murine CTL assay.
# Tests conducted on human cytotoxic T-lymphocyte responses are reported as the mean±standard error of the mean from triplicate ^51 Cr release determinations on pooled cells from duplicate control or test cultures.
SMILES,IgM μg per culture (x ± S.E.M.) ([1]; 1 × 10^-6 molar),IgM μg per culture (x ± S.E.M.) ([1]; 1 × 10^-7 molar),IgM μg per culture (x ± S.E.M.) ([1]; 1 × 10^-8 molar),IgM μg per culture (x ± S.E.M.) ([1]; 1 × 10^-9 molar),IgM μg per culture (x ± S.E.M.) ([1]; 1 × 10^-10 molar) [μg per culture],IgG μg per culture (x ± S.E.M.) ([2]; 1 × 10^-6 molar),IgG μg per culture (x ± S.E.M.) ([2]; 1 × 10^-7 molar),IgG μg per culture (x ± S.E.M.) ([2]; 1 × 10^-8 molar) [μg per culture],IgG μg per culture (x ± S.E.M.) ([2]; 1 × 10^-9 molar) [μg per culture],IgG μg per culture (x ± S.E.M.) ([2]; 1 × 10^-10 molar) [μg per culture],"inhibition at 1 µM ([3]; Test 1, 1 × 10^-6 molar) [%]","inhibition at 0.1 µM ([3]; Test 1, 1 × 10^-7 molar) [%]","inhibition at 10 µM ([3]; Test 2, 1 × 10^-5 molar) [%]","inhibition at 1 µM ([3]; Test 2, 1 × 10^-6 molar) [%]","CTL activity (% specific ^51 Cr release) ([3]; Test 1, 1 × 10^-6 molar)","CTL activity (% specific ^51 Cr release) ([3]; Test 1, 1 × 10^-7 molar)","CTL activity (% specific ^51 Cr release) ([3]; Test 2, 1 × 10^-5 molar)","CTL activity (% specific ^51 Cr release) ([3]; Test 2, 1 × 10^-6 molar)"
"C=C1/C(=C\C=C2/CCC[C@]3(C)[C@@H]([C@H](C)CCC(F)(F)C(C)(C)O)CC[C@@H]23)C[C@@H](O)C[C@@H]1O [24,24-(F)2 --1α,25-(OH)2 --D3, 1α,25-Dihydroxy-24,24-difluorocholecalciferol]",undetectable,undetectable,undetectable,undetectable,0.50 ± 0.12,undetectable,undetectable,0.01 ± 0.003,0.02 ± 0.02,0.11 ± 0.03,71,81,83,91,15 ± 1,10 ± 1,9 ± 2,5 ± 2
"C=C1/C(=C\C=C2/CCC[C@]3(C)[C@@H]([C@H](C)CC[C@@H](F)C(C)(C)O)CC[C@@H]23)C[C@@H](O)C[C@@H]1O [24R-F--1α,25-(OH)2 --D3, 1α,25-Dihydroxy-24R-fluorocholecalciferol]",undetectable,0.12 ± 0.06 μg per culture,1.23 ± 0.03 μg per culture,3.13 ± 0.41 μg per culture,3.84 ± 0.72,undetectable,0.01 ± 0.002 μg per culture,0.10 ± 0.02,0.22 ± 0.05,0.21 ± 0.06,87,62,94,100,7 ± 6,20 ± 1,3 ± 4,0 ± 3
"C=C1/C(=C\C=C2/CCC[C@]3(C)[C@@H]([C@H](C)CCCC(C)(C)O)CC[C@@H]23)C[C@@H](O)C[C@@H]1F [1α-F--25-OH--D3, 1α-Fluoro-25-hydroxycholecalciferol]",undetectable,0.38 ± 0.30 μg per culture,1.83 ± 0.29 μg per culture,3.10 ± 0.10 μg per culture,4.48 ± 0.75,undetectable,0.08 ± 0.05 μg per culture,0.14 ± 0.05,0.18 ± 0.001,0.45 ± 0.11,–,–,–,–,–,–,–,–

# — patent US4749710A, “Immunosuppressive agents” (priority 1985, dated 1988)
